Data set [1] can be described thus: Antiproliferative activity against human OVCAR8 cells after 72 hrs by SRB assay. It is filed as functional, cell-based. Conditions: OVCAR-8, 72 h. For orientation: The SRB assay estimates cell density from bound dye.
The target in data set [2] is T1, RAC-alpha serine/threonine-protein kinase (Homo sapiens, UniProt P31749). Description: Inhibition of Akt1 (unknown origin) expressed in Escherichia coli using peptide substrate after 1 hr by HTRF assay. In general terms: TR-FRET usually uses a lanthanide donor and a delayed reading to cut background.
The nature of data set [3]: Antiproliferative activity against human HCT116 cells after 72 hrs by SRB assay. It is filed as functional, cell-based. Conditions: HCT-116, 72 h.
A short description of data set [4]: Inhibition of Akt in human PTEN-null LNCAP cells assessed as suppression in PRAS40 phosphorylation after 1 hr by ELISA analysis. Type of data set: cell-based.
Data set [5] concerns the target T1, RAC-alpha serine/threonine-protein kinase. Put plainly: Inhibition of Akt1 (unknown origin) expressed in Escherichia coli at 1 ug/ml using peptide substrate after 1 hr by HTRF assay.
For data set [6], the target named is T2, Testis-specific serine/threonine-protein kinase 1 (Mus musculus, UniProt Q61241).
T2 sequence (Q61241 whole entry): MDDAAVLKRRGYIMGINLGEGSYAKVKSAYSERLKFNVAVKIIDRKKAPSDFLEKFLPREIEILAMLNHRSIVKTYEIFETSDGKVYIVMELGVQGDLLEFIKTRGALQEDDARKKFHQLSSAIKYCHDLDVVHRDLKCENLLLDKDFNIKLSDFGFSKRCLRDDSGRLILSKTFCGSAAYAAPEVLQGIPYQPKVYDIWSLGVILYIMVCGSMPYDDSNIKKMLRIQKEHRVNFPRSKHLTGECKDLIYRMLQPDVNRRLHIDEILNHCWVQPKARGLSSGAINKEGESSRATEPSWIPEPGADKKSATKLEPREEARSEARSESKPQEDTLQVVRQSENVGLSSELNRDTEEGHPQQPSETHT
Description: Inhibition of mouse TSSK1 by luminescent ADP-Glo assay kit. A general note: ADP-Glo turns the ADP formed in a reaction into a luminescent signal.

The nature of data set [7]: Inhibition of PKA (unknown origin) after 60 mins by Z-LYTE kinase assay. Also noted: species or system Homo sapiens.
Data set [8] in a line: Effect on total GAPDH levels in human PC3 cells at 1 to 10 uM after 3 hrs by western blot analysis. Conditions: pc-3, 3 h. Type of data set: ADME, cell-based.
A short description of data set [9]: Effect on total GSK3beta levels in human PC3 cells at 1 to 10 uM after 3 hrs by western blot analysis. It is filed as ADME, cell-based. Conditions: pc-3, 3 h.
Data set [10] is described as follows: Effect on total Akt levels in human PC3 cells at 1 to 10 uM after 3 hrs by western blot analysis. It is filed as ADME, cell-based. Conditions: pc-3, 3 h.

Each structure is given as a SMILES string.

T1 sequence (P31749 whole entry): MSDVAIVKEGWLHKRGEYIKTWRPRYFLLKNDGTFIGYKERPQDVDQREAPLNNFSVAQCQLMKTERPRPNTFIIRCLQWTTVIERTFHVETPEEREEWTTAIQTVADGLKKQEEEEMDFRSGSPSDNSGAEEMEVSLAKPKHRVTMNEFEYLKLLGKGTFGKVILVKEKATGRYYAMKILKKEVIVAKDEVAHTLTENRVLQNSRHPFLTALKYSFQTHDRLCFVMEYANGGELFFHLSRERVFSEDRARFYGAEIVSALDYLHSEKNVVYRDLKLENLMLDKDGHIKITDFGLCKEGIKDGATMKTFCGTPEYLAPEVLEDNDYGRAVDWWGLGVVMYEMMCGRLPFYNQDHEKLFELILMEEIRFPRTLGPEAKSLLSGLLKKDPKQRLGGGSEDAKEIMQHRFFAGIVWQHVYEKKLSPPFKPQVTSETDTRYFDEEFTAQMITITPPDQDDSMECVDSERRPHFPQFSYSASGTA

By IC50 is commonly meant the concentration needed to halve the response being measured. Regarding `Cn1ncc(Cl)c1-c1oc(C(=O)NC2(c3ccc(Cl)c(Cl)c3)CCNCC2)cc1Br`, the IC50 in [1] turned out to be 5.95 µM; in data set [2], 1.48 µM; in data set [3], 6.97 µM.
On to `Cn1ncc(Br)c1-c1ccc(C(=O)NC2(c3ccc(Cl)c(Cl)c3)CCNCC2)cc1`, for which the IC50 was found to be 1.96 µM in data set [1], 1.4 µM in [2] and 11 µM in data set [3].
Consider `Cn1ncc(Br)c1-c1coc(C(=O)NC2(c3ccc(Cl)c(Cl)c3)CCNCC2)c1`, for which the IC50 in data set [1] is 3.77 µM; in data set [2] it was 0.44 µM; in [3] it was 4 µM.
Regarding `Cn1ncc(Cl)c1-c1csc(C(=O)NC2(c3ccc(F)cc3)CCNCC2)c1`, the IC50 in [1] was 8.19 µM; in data set [2], 0.32 µM; in data set [3], 18.3 µM.
For `Cn1ncc(Cl)c1-c1coc(C(=O)NC2(c3ccc(F)cc3)CCNCC2)c1`, in that order: 6.46 µM, 0.92 µM and 10.1 µM.
In the case of `Cn1ncc(Br)c1-c1coc(C(=O)NC2(c3ccc(F)cc3)CCNCC2)c1`, the IC50 in data set [1] came out at 20.1 µM; in [2], 2.02 µM; in [3] it was 18.1 µM.
Regarding `Cn1cc(-c2c(Br)cnn2C)cc1C(=O)NC1(c2ccc(Cl)c(Cl)c2)CCNCC1`, the values for the IC50 in data set [1], in data set [2] and in data set [3] were 2.83 µM, 1.26 µM and 12.9 µM, respectively.
`Cn1ncc(Cl)c1-c1cc(C(=O)N[C@H](CN)Cc2ccc(F)c(F)c2)oc1Cl` [UPROSERTIB]: in data set [4], the IC50 was determined as 0.0756 µM.
Consider `Cn1nccc1-c1csc(C(=O)NC2(c3ccc(F)cc3)CCNCC2)c1`, for which the figures for the IC50 in [1], in data set [2] and in data set [3] were 14.3 µM, 0.92 µM and 24.8 µM, respectively.
On to `NC1(C(=O)N[C@@H](CCO)c2ccc(Cl)cc2)CCN(c2nc[nH]c3nccc2-3)CC1` [CAPIVASERTIB], for which the IC50 turned out to be 7.27 µM in data set [1], 0.337 µM in data set [4] and 5.2 µM in data set [3].
In general, inhibition refers to the drop in the measured response relative to a control, in per cent. Read a high inhibition as a strong effect. `Cn1ncc(Br)c1-c1cc(C(=O)NC2(c3ccc(Cl)c(Cl)c3)CCNCC2)n(C)c1Br`: the IC50 in data set [1] came out at 4.7 µM; in [3], 7.75 µM. The compound also showed an inhibition in data set [5] of 30.3%.
For `Cn1ncc(Br)c1-c1oc(C(=O)NC2(c3ccc(Cl)c(Cl)c3)CCNCC2)cc1Br`, in that order: 5.81 µM, 16.4 µM and 43.5%.
Consider `Cn1nccc1-c1csc(C(=O)NC2(c3ccc(Cl)c(Cl)c3)CCNCC2)c1`, for which the IC50 stood at 1.61 µM in [1], 0.071 µM in [2] and 3.92 µM in data set [3].
As for `Cn1ncc(Cl)c1-c1c(Cl)c(C(=O)NC2(c3ccc(Cl)c(Cl)c3)CCNCC2)n(C)c1Cl`, the IC50 in [1] is 1.77 µM; in data set [2] it was 0.85 µM; in [3], 9.28 µM.
`Cn1ncc(Br)c1-c1csc(C(=O)NC2(c3ccc(F)cc3)CCNCC2)c1`: the IC50 was 7.78 µM in data set [1], 0.36 µM in data set [2] and 17.5 µM in [3].
On to `CN[C@@H]1C[C@H]2O[C@@](C)([C@@H]1OC)n1c3ccccc3c3c4c(c5c6ccccc6n2c5c31)C(=O)NC4` [STAUROSPORINE], for which the IC50 in data set [6] came out at 0.00033 µM; in data set [7] it was 0.0082 µM.
Regarding `Cn1ncc(Cl)c1-c1cc(C(=O)NC2(c3ccc(Cl)c(Cl)c3)CCNCC2)oc1Cl`, the IC50 in data set [1] was 9.76 µM; in data set [2], 0.061 µM; in [4], 0.0304 µM; in data set [3] it was 7.76 µM. Also, the Activity result in [8], in [9] and in data set [10] was “Non-toxic” throughout.
As to `Cn1ncc(Cl)c1-c1ccc(C(=O)NC2(c3ccc(Cl)c(Cl)c3)CCNCC2)cc1`, the IC50 in data set [1] stood at 5.21 µM; in data set [2] it was 1.91 µM; in [3] it was 11.9 µM.
In the case of `Cn1nccc1-c1oc(C(=O)NC2(c3ccc(Cl)c(Cl)c3)CCNCC2)cc1Br`, the IC50 in [1] was 6.87 µM; in data set [3], 24.8 µM. This compound returned an inhibition in [5] of 49.4%.
Consider `Cn1ncc(Cl)c1-c1cc(C(=O)NC2(c3ccc(F)cc3)CCNCC2)oc1Cl`, for which the IC50 in [1] is 4.81 µM; in data set [2], 0.39 µM; in [3] it was 6.47 µM.

These data come from ChEMBL document CHEMBL3804794, “Design, synthesis and biological evaluation of pyrazol-furan carboxamide analogues as novel Akt kinase inhibitors” (Eur J Med Chem, 2016).
